Laboratory results from patent publication US11059844B2, “Immune stimulating macrolides” (ISR IMMUNE SYSTEM REGULATION HOLDING AB (PUBL), priority 2017, dated 2021).

Assays:
human TLR2 = target: T1, human TLR2 (Homo sapiens, UniProt O60603); assay: TLR2 reporter assay (HEK-293-TLR, SEAP); format: cell-based
T1 construct: host or cells: recombinant HEK-293-TLR cell lines
Description: Samples and controls were tested in duplicate on recombinant HEK-293-TLR cell lines using a cell reporter assay at Invivogen using their standard assay conditions. These cell lines functionally over-express human TLR2 protein as well as a reporter gene which is a secreted alkaline phosphatase (SEAP). The production of this reporter gene is driven by an NFkB inducible promoter. The TLR reporter cell lines activation results are given as optical density values (OD).
20 μl of each test article were used to stimulate the hTLR2 reporter cell lines in a 200 μl of final reaction volume. Samples were tested in duplicate, with at least two concentrations tested—20 uM and 10 uM.
Compounds were tested using a TLR2 reporter assay (see general methods) that measured for stimulation of the TLR2 receptor. Stimulatory effect was measured as an increase in optical density (OD) due to release of secreted alkaline phosphatase (SEAP) and is shown in table 4: […]

[1] = tested on: PBMCs from CMV infected donors; assay: IFN-gamma secretion from PBMCs of CMV infected donors with CMV antigen (cytometric bead assay); format: cell-based, Human; conditions: 3 days
Source text: FIG. 9: Interferon-gamma secretion (as measured by cytometric bead assay) from PBMCs (from a CMV+ donor) grown with CMV peptides in the presence or absence of compound 1 or A for 5 days.
Study 8: PBMCs from CMV infected donors cultured in the presence of CMV antigen where either untreated or exposed to compound 1 or compound 2 for 3 days.

[2] = tested on: Macrophages from healthy donors; assay: Cytokine/chemokine secretion from macrophages (cytometric bead assay); format: cell-based, Human
Description: FIG. 10: Interferon-gamma secretion (as measured by cytometric bead assay) from macrophages stimulated with indicated compound for 48 h.
(§1) FIG. 11: Chemokine RANTES secretion (as measured by cytometric bead assay) from PBMC or macrophages stimulated with indicated compound for 48 h.
(§2) FIG. 12: IL12p70 secretion (as measured by cytometric bead assay) from PBMC or macrophages stimulated with indicated compound for 48 h.
(§3) FIG. 13: IL1b secretion (as measured by cytometric bead assay) from PBMC, macrophages or CD4 T cells stimulated with indicated compound for 48 h.
Study 9: Macrophages from healthy donors where exposed to compounds 1 or 2 for 48 hours. […] Compound 1 is therefore able to induce IFN-gamma secretion in macrophages from healthy donors.
(§4) Study 10: PBMCs and macrophages where exposed to compounds 1 or 2 for 2 days (FIG. 11).
(§5) Study 11: PBMCs and macrophages where exposed to compounds 1 and 2 for 2 days.
(§6) Study 12: PBMCs, macrophages and CD4+ T cells where exposed to compounds 1 and 2 for 2 days.

PBMCs = assay: Cytokine/chemokine secretion from PBMCs (cytometric bead assay); format: cell-based, Human; conditions: 2 days
Description: as §1, §2, §3, §4, §5, §6

CD25+ cells = assay: CD25 expression in blood of mice after i.v. dosing; format: in vivo, C57bl/6 mice; conditions: highest dose of 5 mg/kg, 24 h
Description: FIG. 14: % CD25high cells in blood of C57bl/6 mice injected 24 h previously with indicated dose of compound 1. CD25 expression was measured by flow cytometry.
(§7) Study 13: Compound 1 was administered i.v. to C57bl/6 mice at 0.165 mg/kg to 5 mg/kg. CD25+ cell abundance was increased in animals receiving the highest dose of 5 mg/kg (FIG. 14), as was body weight in the same group (not shown).

CD11b+ splenocytes = assay: MHC class I expression on CD11b+ splenocytes of mice after i.v. dosing; format: in vivo, C57bl/6 mice; conditions: spleen removed 24 h later
Description: FIG. 15: % MHC class I high CD11 b+ cells in spleen of 3 individual C57bl/6 mice injected 24 h previously with indicated compound. MHC class I and CD11b expression was measured by flow cytometry.
Study 14: Compound 1 or 2 was administered i.v. to C57bl/6 mice.

[3] = Body weight of mice after i.v. dosing; format: in vivo, C57bl/6 mice; conditions: 5 mg/kg group (not shown)
Description: as §7

T1 sequence (O60603 21-784): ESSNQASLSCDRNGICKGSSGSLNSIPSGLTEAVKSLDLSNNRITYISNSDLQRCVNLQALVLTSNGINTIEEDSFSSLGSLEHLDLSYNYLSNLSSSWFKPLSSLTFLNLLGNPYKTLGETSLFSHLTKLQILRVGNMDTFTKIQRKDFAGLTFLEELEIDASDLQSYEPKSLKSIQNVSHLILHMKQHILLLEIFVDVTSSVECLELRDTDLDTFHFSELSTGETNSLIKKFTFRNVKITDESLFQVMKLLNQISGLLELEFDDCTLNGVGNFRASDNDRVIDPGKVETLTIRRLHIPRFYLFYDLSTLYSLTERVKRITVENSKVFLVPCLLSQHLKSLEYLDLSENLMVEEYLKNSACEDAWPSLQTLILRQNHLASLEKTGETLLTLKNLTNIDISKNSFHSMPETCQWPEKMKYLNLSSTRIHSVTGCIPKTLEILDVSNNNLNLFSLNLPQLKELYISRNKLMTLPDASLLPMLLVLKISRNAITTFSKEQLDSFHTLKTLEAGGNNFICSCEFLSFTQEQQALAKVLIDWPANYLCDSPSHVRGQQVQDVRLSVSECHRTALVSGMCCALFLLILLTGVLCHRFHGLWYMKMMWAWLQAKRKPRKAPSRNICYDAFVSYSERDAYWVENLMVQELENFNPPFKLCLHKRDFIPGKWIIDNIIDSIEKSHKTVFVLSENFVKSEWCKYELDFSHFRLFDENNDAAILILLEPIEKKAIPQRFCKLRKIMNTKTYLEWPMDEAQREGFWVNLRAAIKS

Compound: CC[C@H]1OC(=O)[C@H](C)[C@@H](O[C@H]2C[C@@H](N(C)C)[C@H](O)[C@@H](C)O2)[C@H](C)[C@@H](O)[C@](C)(O)C[C@@H](C)CN(C)[C@H](C)[C@@H](O)[C@]1(C)O [Compound 1]
- lowest concentration at which TLR2 was stimulated (concentrations down to) (human TLR2): 5 µM
- OD after addition of 5 μM test article (human TLR2; 5 μM): 0.111 OD
- OD after addition of 10 μM test article (human TLR2; 10 μM): 0.202 OD
- OD after addition of 20 μM test article (human TLR2; 20 μM): 0.458 OD
- IFN-gamma secretion, PBMCs with CMV antigen [1]: induced secretion of high levels
- IL-1beta secretion, macrophages ([2]; 2 days): increased
- IL-12p70 secretion, macrophages ([2]; 2 days): secreted IL-12p70
- RANTES expression, macrophages ([2]; 2 days): high expression
- IFN-gamma secretion, macrophages ([2]; 48 hours): secreted IFN-gamma
- IL-1beta secretion, PBMCs (PBMCs): slightly
- IL-12p70 secretion, PBMCs (PBMCs): secreted IL-12p70
- RANTES expression, PBMCs (PBMCs): twofold upregulation
- CD25+ cell abundance (CD25+ cells): increased
- splenocyte cells with high MHC I expression (CD11b+) (CD11b+ splenocytes): induced an increase
- body weight [3]: increased
